Entries after “also recorded” stand apart in the source; their conditions may differ. Read-outs that look alike come from different tables or passages of the source.

Data set [1] has as its target T1, jack bean urease (Canavalia ensiformis, UniProt P07374). Description: biochemical. It is filed as biochemical. The procedure:
The inhibitory effects on urease activity were done based on the Weatherburn method, using the indophenol scheme by determining the amount of ammonia produced. Briefly, 20 μL of jack bean urease enzyme (0.135 units) and 20 μL of the tested compounds were taken in 50 μL buffer and were incubated for 30 min. Temperature was kept at 37°C in a 96-well plate reader. The buffer solution was made by 0.01 molar K2HPO4/KH2PO4, 1 mM EDTA, 100 mM urea, and 0.01 M LiCl; pH was maintained at 7.0. Then, 50 μL of phenol reagent (1% w/v phenol and 0.005% w/v sodium nitroprusside) was added in 50 μL of alkali reagent in each well. The alkali reagent was prepared by 0.5% w/v NaOH and 0.1% NaOCl. Absorbance was measured at 625 nm using OPTIMax, a tunable microplate reader, after 10 min interval in a triplicate manner. The thiourea was used as a standard jack bean urease inhibitor. The data has been analyzed using software, GraphPad Prism, and statistical analysis (SD) was performed by using SigmaPlot software to get SD values of the bioassay results.

The target of data set [2] is T1, jack bean urease. Description: Kinetic study of jack bean urease inhibition (Lineweaver-Burk plots). Also on record: 1/Vmax: unit not given here. It is filed as biochemical. The procedure: The derivative 4b was selected on the basis of its high activity for the determination of its kinetic mechanism on jack bean urease. The enzyme inhibition EI and enzyme-substrate inhibition ESI constants for compound 4b have been determined. The inhibitor concentration used in the kinetic experiments was 0.00, 0.0008, and 0.0016 μM while concentration of substrate was 0.0, 0.1, 0.2, 0.3, and 0.4 mM. The kinetic mechanism was determined by plotting of 1/V versus 1/[S] in the presence of inhibitor concentrations which gave a series of straight lines as shown in Figure 3. […] The EI dissociation constant (Ki) and ESI dissociation constant (Ki′) for compound 4b have also been determined from Lineweaver-Burk plots.

Data set [3] concerns the target T1, jack bean urease. The note with it: jack bean urease inhibitors already reported; ref [35], [36]; cited from earlier work.
[4] abbreviates: n = 3, 30 min, 37°C, pH 7.0, 100 mM urea, read-out: Urease (jack bean) inhibition IC50 ± SD.

T1 sequence (P07374 whole entry, looked up): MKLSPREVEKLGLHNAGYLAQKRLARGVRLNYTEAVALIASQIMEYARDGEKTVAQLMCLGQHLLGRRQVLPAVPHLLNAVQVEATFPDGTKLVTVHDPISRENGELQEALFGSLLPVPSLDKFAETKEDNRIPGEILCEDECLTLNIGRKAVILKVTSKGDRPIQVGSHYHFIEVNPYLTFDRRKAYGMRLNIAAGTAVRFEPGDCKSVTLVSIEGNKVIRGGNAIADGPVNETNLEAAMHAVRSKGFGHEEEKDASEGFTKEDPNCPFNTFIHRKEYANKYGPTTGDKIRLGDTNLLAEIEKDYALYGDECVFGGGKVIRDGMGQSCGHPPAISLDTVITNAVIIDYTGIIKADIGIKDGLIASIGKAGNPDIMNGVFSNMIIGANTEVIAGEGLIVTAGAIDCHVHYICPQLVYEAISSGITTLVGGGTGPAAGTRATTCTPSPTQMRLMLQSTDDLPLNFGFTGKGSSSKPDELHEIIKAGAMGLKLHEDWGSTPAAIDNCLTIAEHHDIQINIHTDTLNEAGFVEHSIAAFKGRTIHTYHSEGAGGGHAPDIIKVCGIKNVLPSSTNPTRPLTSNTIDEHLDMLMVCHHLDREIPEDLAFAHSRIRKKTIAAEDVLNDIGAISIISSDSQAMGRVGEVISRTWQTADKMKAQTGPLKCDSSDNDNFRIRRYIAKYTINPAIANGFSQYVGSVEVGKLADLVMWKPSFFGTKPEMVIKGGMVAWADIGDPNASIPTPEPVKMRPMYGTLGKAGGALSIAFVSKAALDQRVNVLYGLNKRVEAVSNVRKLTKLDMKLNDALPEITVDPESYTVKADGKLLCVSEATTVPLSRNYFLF

Regarding “2-((5-Isopropyl-2-methyl phenyl) Amino)-2-oxoethyl 2-Bromobenzoate [4i]”, the IC50 at jack bean urease [1] (setting [4]) was found to be 0.0211 ± 0.0007 µM. Still for that read-out and setting: for “2-((5-Isopropyl-2-methyl phenyl) Amino)-2-oxoethyl 3,4-Dichlorobenzoate [4k]” the value was 0.0501 ± 0.0017 µM. Turning to “2-((5-Isopropyl-2-methyl phenyl) Amino)-2-oxoethyl 3-Bromobenzoate [4j]”, the 50% inhibitory concentration (IC50) at jack bean urease [1] (setting [4]) turned out to be 0.0021 ± 0.0001 µM. Moreover, the “times more active than derivative 4k” value on jack bean urease [1] (ratio of urease inhibitory activity, 4j versus 4k) stood at 25. In the case of `CC(C)c1ccc(NC(=O)COC(=O)c2ccccc2Cl)cc1` [4a, 2-((4-Isopropylphenyl)amino)-2-oxoethyl 2-Chlorobenzoate], the melting point was in the range of 94 to 96 °C. Also, the half-maximal inhibitory concentration (IC50) against jack bean urease [1] was found to be 0.0571 ± 0.0019 µM. For `CC(C)c1ccc(NC(=O)COC(=O)c2cccc(Cl)c2)cc1` [4b, 2-((4-Isopropylphenyl)amino)-2-oxoethyl 3-Chlorobenzoate], the melting point was in the range of 96 to 98 °C. On jack bean urease [2], this compound had a Ki of 0.0007 µM. At jack bean urease [2] (Lineweaver-Burk plots), the Inhibition type entry was “mixed type of inhibitor; also recorded: mixed type of inhibition”. Moreover, the “Ki′ (ESI dissociation constant)” value at jack bean urease [2] (from Lineweaver-Burk plots) was determined as 0.0018 µM. For the same compound, the 1/Vmax on jack bean urease [2] (inhibitor dose 0.0016 μM, substrate urea) is on record as 0.00088. Moreover, it took 0.0016 ± 0.0002 µM to reach half-maximal inhibition on jack bean urease [1] (IC50). `CC(C)c1ccc(NC(=O)COC(=O)c2ccc(Cl)c(Cl)c2)cc1` [4c, 2-((4-Isopropylphenyl)amino)-2-oxoethyl 3,4-Dichlorobenzoate] showed a melting point of 107 to 108 °C. On jack bean urease [1], the half-maximal inhibitory concentration (IC50) stood at 0.0182 ± 0.0006 µM.

`CC(C)c1ccc(NC(=O)COC(=O)c2ccccc2Br)cc1` [4d, 2-((4-Isopropylphenyl)amino)-2-oxoethyl 2-Bromobenzoate] gave a melting point of 89 to 90 °C. In addition, on jack bean urease [1], the IC50 turned out to be 0.0038 ± 0.0002 µM. The matching figures for `CC(C)c1ccc(NC(=O)COC(=O)c2cccc(Br)c2)cc1` [4e, 2-((4-Isopropylphenyl)amino)-2-oxoethyl 3-Bromobenzoate]: 91 to 92 °C and 0.0627 ± 0.0021 µM.

Consider `CC(C)c1ccc(NC(=O)COC(=O)c2ccccc2I)cc1` [4f, 2-((4-Isopropylphenyl)amino)-2-oxoethyl 2-Iodobenzoate], for which the melting point lay within 91 to 92 °C. For the same compound, the half-inhibitory concentration (IC50) against jack bean urease [1] was determined as 0.0312 ± 0.0011 µM. The matching figures for `Cc1ccc(C(C)C)cc1NC(=O)COC(=O)c1ccccc1Cl` [4g, 2-((5-Isopropyl-2-methylphenyl) Amino)-2-oxoethyl 2-Chloro Benzoate]: 115 to 116 °C and 0.0038 ± 0.0002 µM. Take `Cc1ccc(C(C)C)cc1NC(=O)COC(=O)c1ccccc1I` [4l, 2-((5-Isopropyl-2-methylphenyl) Amino)-2-oxoethyl 2-Iodobenzoate]: the half-maximal inhibitory concentration (IC50) at jack bean urease [1] is 0.0115 ± 0.0039 µM.

For the compound `NC(N)=S` [Thiourea, thiourea, reference compound], the half-maximal inhibitory concentration (IC50) at jack bean urease [1] (setting [4]) was 0.472 ± 0.135 µM. `Cc1ccc(C(=O)NC(=S)Nc2coc(=O)c3ccccc23)cc1` [compound 2]: the 50% inhibitory concentration (IC50) on jack bean urease [3] was 0.0065 µM.

For orientation: IC50 means the concentration needed to halve the response being measured. One may read the melting point as the temperature, or range, at which the solid turns liquid. Broadly, the Ki is a dissociation constant, usually derived from enzyme kinetics or from competition with a known ligand.

Source of the values: publication PMC7775144, “Enzyme Inhibitory Kinetics and Molecular Docking Studies of Halo-Substituted Mixed Ester/Amide-Based Derivatives as Jack Bean Urease Inhibitors” (BioMed Research International, 2020).
